Publication PMC11748363, “Antimicrobial and Antiproliferative Properties of 2‐Phenyl‐N‐(Pyridin‐2‐yl)acetamides” (Chemical Biology & Drug Design, 2025)
Values after ≈ are worked out from the molar mass of the structure shown. Read-outs that look alike come from different tables or passages of the source.

Experiments:
[1] = tested on: Mycolicibacterium smegmatis DSM 43465; assay: Antimycobacterial microdilution broth MIC (resazurin), M. smegmatis; assay type: cell-based; conditions: DSM43465, read-out: MIC M. smegmatis
[2] = tested on: Candida albicans CCM 8320, ATCC 24433; assay: Antifungal microdilution broth MIC, CA
[3] = tested on: Klebsiella pneumoniae CCM 4415, ATCC 10031; assay: Antibacterial microdilution broth MIC, KP
[4] = tested on: Aspergillus flavus CCM 8363; assay: Antifungal microdilution broth MIC, AFla
[5] = tested on: Staphylococcus epidermidis CCM 4418, ATCC 12228; assay: Antibacterial microdilution broth MIC, SE; assay type: cell-based
[6] = tested on: Mycobacterium tuberculosis H37Ra; assay: Antimycobacterial microdilution broth MIC (resazurin), Mtb H37Ra; assay type: cell-based; conditions: Mycobacterium tuberculosis, H37RA, read-out: MIC Mtb H37Ra
[7] = tested on: Candida parapsilosis CCM 8260, ATCC 22019; assay: Antifungal microdilution broth MIC, CP; conditions: Lodderomyces parapsilosis
[8] = tested on: Aspergillus fumigatus ATCC 204305; assay: Antifungal microdilution broth MIC, AF
[9] = tested on: Candida krusei CCM 8271, ATCC 6258; assay: Antifungal microdilution broth MIC, CK; conditions: Pichia kudriavzevii
[10] = tested on: Acinetobacter baumannii DSM 30007, ATCC 19606; assay: Antibacterial microdilution broth MIC, ACI; assay type: cell-based
[11] = tested on: Enterococcus faecalis CCM 4224, ATCC 29212; assay: Antibacterial microdilution broth MIC, EF; assay type: cell-based
[12] = tested on: Staphylococcus aureus subsp. aureus CCM 4750, ATCC 43300 (MRSA); assay: Antibacterial microdilution broth MIC, MRSA; assay type: cell-based; conditions: Staphylococcus aureus
[13] = tested on: Staphylococcus aureus CCM 4223, ATCC 29213; assay: Antibacterial microdilution broth MIC, SA; assay type: cell-based; conditions: Staphylococcus aureus
[14] = tested on: Escherichia coli CCM 3954, ATCC 25922; assay: Antibacterial microdilution broth MIC, EC; assay type: cell-based
[15] = tested on: Candida tropicalis CCM 8264, ATCC 750; assay: Antifungal microdilution broth MIC, CT
[16] = tested on: Mycolicibacterium aurum DSM 43999; assay: Antimycobacterial microdilution broth MIC (resazurin), M. aurum; assay type: cell-based; conditions: DSM43999, read-out: MIC M. aurum
HepG2 cell line = assay: Cytotoxicity CellTiter 96, HepG2; assay type: cell-based, human; conditions: Homo sapiens, HepG2, 24 h, 24 h incubation; ^c compound precipitated in the testing medium; ^d over the limit of tested concentrations
Method: The cytotoxicity of final compounds was determined in human hepatocellular carcinoma cell line HepG2.
Cytotoxicity determination
Human hepatocellular liver carcinoma cell line HepG2 purchased from Health Protection Agency Culture Collections (ECACC, Salisbury, UK) was cultured in MEM (Minimum Essentials Eagle Medium, Sigma–Aldrich) supplemented with 10% fetal bovine serum (PAA Laboratories, Pasching, Austria), 1% L-glutamine solution (Sigma–Aldrich) and non-essential amino acid solution (Sigma–Aldrich) in a humidified atmosphere containing 5% CO2 at 37 °C. For subculturing, the cells were harvested after trypsin/EDTA (Sigma–Aldrich) treatment at 37 °C. To evaluate cytotoxicity, the cells treated with the tested substances were used as experimental groups whereas untreated HepG2 cells served as controls. The cells were seeded in density 10,000 cells per well in a 96 well plate. The next day the cells were treated with each of the tested substances dissolved in DMSO. The tested substances were
in triplicates according to their solubility. Simultaneously, the controls representing 100% cell viability, 0% cell viability (the cells treated with 10% DMSO), no cell control and vehiculum controls were also
the reagent from the kit CellTiter 96 AQueous One Solution Cell Proliferation Assay (CellTiter 96; PROMEGA, Fitchburg, USA) was added. After 2h incubation at 37 °C, absorbance of samples was recorded at 490 nm (TECAN, Infinita M200, Austria). A standard toxicological parameter IC50 was calculated by nonlinear regression from a semilogarithmic plot of incubation concentration versus percentage of absorbance relative to untre ated controls using GraphPad Prism 8 software.

[17] = tested on: Pseudomonas aeruginosa CCM 3955, ATCC 27853; assay: Antibacterial microdilution broth MIC, PA; assay type: cell-based
[18] = tested on: Lichtheimia corymbifera CCM 8077; assay: Antifungal microdilution broth MIC, LC
[19] = tested on: Trichophyton interdigitale CCM 8377, ATCC 9533; assay: Antifungal microdilution broth MIC, TI; conditions: Trichophyton interdigitale
[20] = CCM8363, 24 h, read-out: MIC AFla 24h
[21] = CCM8363, 48 h, read-out: MIC AFla 48h
[22] = ATCC204305, 24 h, read-out: MIC AF 24h
[23] = ATCC204305, 48 h, read-out: MIC AF 48h
[24] = CCM8077, 24 h, read-out: MIC LC 24h
[25] = CCM8077, 48 h, read-out: MIC LC 48h

Structure (SMILES)	MIC [1]	MIC ([2]; 24 h, read-out: MIC CA 24h)	MIC ([2]; 48 h, read-out: MIC CA 48h)	MIC KP 24h [3]	MIC KP 48h [3]	MIC [4, 20]	MIC [4, 21]	MIC ([5]; 24 h, read-out: MIC SE 24h)	MIC ([5]; 48 h, read-out: MIC SE 48h)	MIC ([6]; Calculated from MIC (μg/mL))	MIC [6]	MIC ([7]; 24 h, read-out: MIC CP 24h)	MIC ([7]; 48 h, read-out: MIC CP 48h)	MIC [8, 22]	MIC [8, 23]	MIC ([9]; 24 h, read-out: MIC CK 24h)	MIC ([9]; 48 h, read-out: MIC CK 48h)	MIC ([10]; 24 h, read-out: MIC ACI 24h)	MIC ([10]; 48 h, read-out: MIC ACI 48h)	MIC ([11]; 24 h, read-out: MIC EF 24h)	further results
COc1ccccc1CC(=O)Nc1cccc(Cl)n1 [Compound 6]	> 500 µg/mL	> 500 µM	> 500 µM	> 500 µM	> 500 µM	> 500 µM	> 500 µM	> 500 µM	> 500 µM	> 1800 µM	> 500 µg/mL	> 500 µM	> 500 µM	> 500 µM	> 500 µM	> 500 µM	> 500 µM	> 500 µM	> 500 µM	> 500 µM	MIC ([11]; 48 h, read-out: MIC EF 48h): > 500 µM; MIC ([12]; 24 h, read-out: MIC MRSA 24h): > 500 µM; MIC ([12]; 48 h, read-out: MIC MRSA 48h): > 500 µM; MIC ([13]; 24 h, read-out: MIC SA 24h): > 500 µM; MIC ([13]; 48 h, read-out: MIC SA 48h): > 500 µM; MIC ([14]; 24 h, read-out: MIC EC 24h): > 500 µM; MIC ([14]; 48 h, read-out: MIC EC 48h): > 500 µM; MIC ([15]; 24 h, read-out: MIC CT 24h): > 500 µM; MIC ([15]; 48 h, read-out: MIC CT 48h): > 500 µM; MIC [16]: > 500 µg/mL; IC50 (HepG2 cell line): > 500 µM; MIC ([17]; 24 h, read-out: MIC PA 24h): > 500 µM; MIC ([17]; 48 h, read-out: MIC PA 48h): > 500 µM; MIC [18, 24]: > 500 µM; MIC [18, 25]: > 500 µM; MIC ([19]; 72 h, read-out: MIC TI 72h): > 500 µM; MIC ([19]; 120 h, read-out: MIC TI 120h): > 500 µM
O=C(Cc1cccc(C(F)(F)F)c1)Nc1ccccn1 [Compound 25]	> 500 µg/mL	> 500 µM	> 500 µM	> 500 µM	> 500 µM	> 500 µM	> 500 µM	> 500 µM	> 500 µM	223 µM	62.5 µg/mL	> 500 µM	> 500 µM	> 500 µM	> 500 µM	> 500 µM	> 500 µM	> 500 µM	> 500 µM	> 500 µM	MIC ([11]; 48 h, read-out: MIC EF 48h): > 500 µM; MIC ([12]; 24 h, read-out: MIC MRSA 24h): > 500 µM; MIC ([12]; 48 h, read-out: MIC MRSA 48h): > 500 µM; MIC ([13]; 24 h, read-out: MIC SA 24h): > 500 µM; MIC ([13]; 48 h, read-out: MIC SA 48h): > 500 µM; MIC ([14]; 24 h, read-out: MIC EC 24h): > 500 µM; MIC ([14]; 48 h, read-out: MIC EC 48h): > 500 µM; MIC ([15]; 24 h, read-out: MIC CT 24h): > 500 µM; MIC ([15]; 48 h, read-out: MIC CT 48h): > 500 µM; MIC [16]: 125 µg/mL (≈ 446 µM); IC50 (HepG2 cell line): 724 µM; MIC ([17]; 24 h, read-out: MIC PA 24h): > 500 µM; MIC ([17]; 48 h, read-out: MIC PA 48h): > 500 µM; MIC [18, 24]: > 500 µM; MIC [18, 25]: > 500 µM; MIC ([19]; 72 h, read-out: MIC TI 72h): 500 µM (≈ 140 µg/mL); MIC ([19]; 120 h, read-out: MIC TI 120h): 500 µM (≈ 140 µg/mL)
O=C(Cc1ccc(C(F)(F)F)cc1)Nc1ccc(Cl)cn1 [Compound 29]	> 500 µg/mL	> 500 µM	> 500 µM	> 500 µM	> 500 µM	> 500 µM	> 500 µM	250 µM (≈ 78.7 µg/mL)	250 µM (≈ 78.7 µg/mL)	397 µM	125 µg/mL	> 500 µM	> 500 µM	> 500 µM	> 500 µM	> 500 µM	> 500 µM	> 500 µM	> 500 µM	> 500 µM	MIC ([11]; 48 h, read-out: MIC EF 48h): > 500 µM; MIC ([12]; 24 h, read-out: MIC MRSA 24h): > 500 µM; MIC ([12]; 48 h, read-out: MIC MRSA 48h): > 500 µM; MIC ([13]; 24 h, read-out: MIC SA 24h): > 500 µM; MIC ([13]; 48 h, read-out: MIC SA 48h): > 500 µM; MIC ([14]; 24 h, read-out: MIC EC 24h): > 500 µM; MIC ([14]; 48 h, read-out: MIC EC 48h): > 500 µM; MIC ([15]; 24 h, read-out: MIC CT 24h): > 500 µM; MIC ([15]; 48 h, read-out: MIC CT 48h): > 500 µM; MIC [16]: > 500 µg/mL; IC50 (HepG2 cell line): > 50 µM; MIC ([17]; 24 h, read-out: MIC PA 24h): > 500 µM; MIC ([17]; 48 h, read-out: MIC PA 48h): > 500 µM; MIC [18, 24]: > 500 µM; MIC [18, 25]: > 500 µM; MIC ([19]; 72 h, read-out: MIC TI 72h): > 500 µM; MIC ([19]; 120 h, read-out: MIC TI 120h): > 500 µM
O=C(Cc1ccccc1C(F)(F)F)Nc1ccccn1 [Compound 22]	250 µg/mL (≈ 892 µM)	> 500 µM	> 500 µM	> 500 µM	> 500 µM	> 500 µM	> 500 µM	> 500 µM	> 500 µM	446 µM	125 µg/mL	> 500 µM	> 500 µM	500 µM (≈ 140 µg/mL)	> 500 µM	> 500 µM	> 500 µM	> 500 µM	> 500 µM	> 500 µM	MIC ([11]; 48 h, read-out: MIC EF 48h): > 500 µM; MIC ([12]; 24 h, read-out: MIC MRSA 24h): > 500 µM; MIC ([12]; 48 h, read-out: MIC MRSA 48h): > 500 µM; MIC ([13]; 24 h, read-out: MIC SA 24h): > 500 µM; MIC ([13]; 48 h, read-out: MIC SA 48h): > 500 µM; MIC ([14]; 24 h, read-out: MIC EC 24h): > 500 µM; MIC ([14]; 48 h, read-out: MIC EC 48h): > 500 µM; MIC ([15]; 24 h, read-out: MIC CT 24h): > 500 µM; MIC ([15]; 48 h, read-out: MIC CT 48h): > 500 µM; MIC [16]: 250 µg/mL (≈ 892 µM); IC50 (HepG2 cell line): 445 µM; MIC ([17]; 24 h, read-out: MIC PA 24h): > 500 µM; MIC ([17]; 48 h, read-out: MIC PA 48h): > 500 µM; MIC [18, 24]: 500 µM (≈ 140 µg/mL); MIC [18, 25]: > 500 µM; MIC ([19]; 72 h, read-out: MIC TI 72h): 500 µM (≈ 140 µg/mL); MIC ([19]; 120 h, read-out: MIC TI 120h): 500 µM (≈ 140 µg/mL)
